Results taken from ChEMBL document CHEMBL1201862, “PubChem BioAssay data set” (2004).
The source made the active and inactive calls. Rule as the data show it, for most assays here: actives have a measured EC50 and inactives only a lower limit.

Legend:
[1] = biological target: Luciferin 4-monooxygenase (Photinus pyralis, UniProt P08659); test: firefly luciferase enzyme inhibitors, dose response, biochemical, luminescence (AID 1891)
[2] = Luminescence Cell-Based Dose Confirmation HTS to Identify Inhibitors of Platelet Dense Granule Release. [Related pubchem assays: 1663 (Primary HTS), 1678 (Summary of Project)]; type: functional
[3] = biological target: T1, RNA-binding protein pos-1 (Caenorhabditis elegans, UniProt G5EF15); test: inhibitors of POS-1/mex-3 RNA binding, dose response, biochemical, fluorescence polarization (AID 1964);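 also: purified POS-1 fused to maltose binding protein made in E. coli; potency of compounds blocking POS-1 binding to fluorescent RNA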
T1 sequence (G5EF15 whole entry): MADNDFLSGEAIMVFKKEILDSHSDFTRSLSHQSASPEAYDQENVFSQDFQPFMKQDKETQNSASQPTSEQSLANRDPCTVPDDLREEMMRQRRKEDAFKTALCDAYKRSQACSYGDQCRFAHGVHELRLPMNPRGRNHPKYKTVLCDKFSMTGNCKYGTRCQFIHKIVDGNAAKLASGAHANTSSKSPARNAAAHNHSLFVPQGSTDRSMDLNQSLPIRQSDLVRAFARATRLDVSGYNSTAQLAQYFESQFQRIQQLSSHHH

[4] = biological target: T2, Zinc finger protein mex-5 (Caenorhabditis elegans, UniProt Q9XUB2); test: MEX-5/TCR-2 RNA interaction inhibitors, dose response, biochemical, C. elegans, fluorescence polarization (AID 1960)
T2 sequence (Q9XUB2 whole entry): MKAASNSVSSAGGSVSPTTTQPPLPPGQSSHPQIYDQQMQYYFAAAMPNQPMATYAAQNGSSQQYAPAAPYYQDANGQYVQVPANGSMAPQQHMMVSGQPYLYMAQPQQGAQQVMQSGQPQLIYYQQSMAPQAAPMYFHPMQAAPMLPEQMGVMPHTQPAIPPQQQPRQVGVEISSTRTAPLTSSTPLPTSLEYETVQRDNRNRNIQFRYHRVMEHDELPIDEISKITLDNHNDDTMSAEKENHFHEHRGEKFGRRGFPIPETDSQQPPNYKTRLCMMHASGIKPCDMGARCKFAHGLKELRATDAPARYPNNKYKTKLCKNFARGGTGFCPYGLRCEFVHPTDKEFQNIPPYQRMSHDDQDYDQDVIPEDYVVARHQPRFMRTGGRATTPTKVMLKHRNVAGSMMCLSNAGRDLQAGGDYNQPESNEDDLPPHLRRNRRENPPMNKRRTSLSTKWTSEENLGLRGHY

[5] = biological target: T3, Calpain-2 catalytic subunit (Sus scrofa, UniProt P43367); test: pig calpain II inhibitor potency, dose response, biochemical, fluorogenic peptide substrate (AID 1420); type: functional
T3 sequence (P43367 whole entry): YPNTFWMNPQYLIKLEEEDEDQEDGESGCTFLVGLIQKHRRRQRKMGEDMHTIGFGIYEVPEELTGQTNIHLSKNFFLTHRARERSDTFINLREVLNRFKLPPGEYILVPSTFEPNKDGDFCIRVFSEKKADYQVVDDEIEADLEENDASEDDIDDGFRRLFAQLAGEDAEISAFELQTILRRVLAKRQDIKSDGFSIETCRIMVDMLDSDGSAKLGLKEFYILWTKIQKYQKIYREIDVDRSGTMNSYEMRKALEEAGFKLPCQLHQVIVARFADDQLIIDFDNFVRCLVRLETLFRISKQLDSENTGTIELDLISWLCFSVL

cells = type: functional
Protein skinhead-1 = biological target: T4, Protein skinhead-1 (Caenorhabditis elegans, UniProt P34707); type: functional
T4 sequence (P34707 whole entry): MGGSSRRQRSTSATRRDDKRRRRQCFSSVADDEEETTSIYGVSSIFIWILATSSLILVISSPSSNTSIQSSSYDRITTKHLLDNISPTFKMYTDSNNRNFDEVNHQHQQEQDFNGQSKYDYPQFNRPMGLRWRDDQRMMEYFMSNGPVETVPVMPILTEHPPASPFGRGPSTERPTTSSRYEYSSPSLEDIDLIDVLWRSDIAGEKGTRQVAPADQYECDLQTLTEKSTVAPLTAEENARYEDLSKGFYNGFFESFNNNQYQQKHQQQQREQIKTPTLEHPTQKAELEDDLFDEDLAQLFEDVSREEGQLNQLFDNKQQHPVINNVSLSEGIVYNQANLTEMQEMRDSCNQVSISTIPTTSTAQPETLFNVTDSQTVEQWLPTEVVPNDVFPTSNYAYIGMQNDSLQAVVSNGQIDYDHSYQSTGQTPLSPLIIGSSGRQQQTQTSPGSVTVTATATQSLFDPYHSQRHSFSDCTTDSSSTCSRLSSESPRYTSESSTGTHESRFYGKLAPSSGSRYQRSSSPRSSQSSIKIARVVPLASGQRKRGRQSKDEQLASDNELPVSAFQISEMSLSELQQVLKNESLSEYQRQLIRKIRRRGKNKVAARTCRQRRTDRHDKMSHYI

[6] = biological target: T5, Heat shock factor protein 1 (Mus musculus, UniProt P38532); test: inhibition of MG132-induced HSE-luciferase signal, confirmation, cell-based, NIH3T3, luminescence, dose retest (AID 2382); type: functional;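 also: NIH3T3 fibroblasts with HSF1-driven luciferase reporter stressed by proteasome inhibitor MG132; luminescence from HSF1-driven luciferase expression after 8 hours of MG132 stress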
T5 sequence (P38532 whole entry): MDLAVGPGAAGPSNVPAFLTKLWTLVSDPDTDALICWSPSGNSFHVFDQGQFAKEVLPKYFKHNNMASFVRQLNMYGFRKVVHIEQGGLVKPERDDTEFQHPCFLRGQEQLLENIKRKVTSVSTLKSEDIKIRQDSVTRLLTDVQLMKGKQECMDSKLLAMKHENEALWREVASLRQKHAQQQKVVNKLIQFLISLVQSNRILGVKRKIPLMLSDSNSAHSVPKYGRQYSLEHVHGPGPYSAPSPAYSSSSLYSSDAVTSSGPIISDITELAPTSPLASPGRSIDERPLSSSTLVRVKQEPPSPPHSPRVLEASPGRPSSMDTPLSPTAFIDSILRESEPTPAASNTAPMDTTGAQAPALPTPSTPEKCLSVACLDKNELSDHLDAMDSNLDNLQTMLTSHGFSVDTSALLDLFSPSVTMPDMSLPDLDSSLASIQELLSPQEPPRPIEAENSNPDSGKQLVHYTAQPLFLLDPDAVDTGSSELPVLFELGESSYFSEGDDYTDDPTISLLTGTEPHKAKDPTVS

[7] = Luminescence Cell-Based Dose Retest to Confirm Inhibitors of Cancer Stem Cells. [Related pubchem assays (depositor defined):AID2717, AID2721]; type: functional; conditions: Homo sapiens
[8] = biological target: T6, Corticotropin-releasing factor receptor 2/Corticotropin-releasing factor-binding protein (Homo sapiens, UniProt P24387+Q13324); test: activators of CRF receptor 2 with binding protein – uHTS hits, confirmation (AID 602473); type: functional; conditions: read-out: EC50_Mean
T6 sequence (Q13324 whole entry): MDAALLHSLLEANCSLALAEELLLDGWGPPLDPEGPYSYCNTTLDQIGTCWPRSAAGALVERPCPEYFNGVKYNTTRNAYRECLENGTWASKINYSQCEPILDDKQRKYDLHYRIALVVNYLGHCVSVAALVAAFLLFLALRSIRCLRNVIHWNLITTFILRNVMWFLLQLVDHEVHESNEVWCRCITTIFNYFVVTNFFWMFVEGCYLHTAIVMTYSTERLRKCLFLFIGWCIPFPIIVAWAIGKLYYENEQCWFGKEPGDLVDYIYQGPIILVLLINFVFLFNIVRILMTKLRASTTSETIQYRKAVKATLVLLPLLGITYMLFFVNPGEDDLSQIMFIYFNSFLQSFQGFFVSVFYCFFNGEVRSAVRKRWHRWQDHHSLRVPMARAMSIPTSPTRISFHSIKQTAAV
T6 sequence (P24387 whole entry): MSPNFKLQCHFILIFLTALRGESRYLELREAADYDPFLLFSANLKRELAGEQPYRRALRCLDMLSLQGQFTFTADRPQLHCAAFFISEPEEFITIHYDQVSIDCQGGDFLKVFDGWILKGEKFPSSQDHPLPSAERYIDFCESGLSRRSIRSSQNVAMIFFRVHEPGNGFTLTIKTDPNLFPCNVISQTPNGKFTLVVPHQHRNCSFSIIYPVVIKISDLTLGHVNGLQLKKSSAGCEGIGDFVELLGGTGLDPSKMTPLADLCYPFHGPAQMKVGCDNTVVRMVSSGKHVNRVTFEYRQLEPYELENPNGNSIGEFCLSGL

[9] = test system: Streptococcus sp. 'group A'; test: growth inhibition of control SK(-) GAS strain, dose response, counter-screen for streptokinase expression inhibitor project, luminescence, kanamycin, BacTiterGlo, confirmation (AID 1900); type: functional, organism-based
Streptokinase A = biological target: T7, Streptokinase A (Streptococcus pyogenes serotype M1, UniProt P10520); test: S. pyogenes streptokinase expression inhibitors, potency, dose response, plasminogen activation absorbance, OD405 (AID 1914); type: functional, Streptococcus pyogenes M1 GAS;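 also: secreted streptokinase activity via plasminogen activation per viability signal from cell pellet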
T7 sequence (P10520 whole entry): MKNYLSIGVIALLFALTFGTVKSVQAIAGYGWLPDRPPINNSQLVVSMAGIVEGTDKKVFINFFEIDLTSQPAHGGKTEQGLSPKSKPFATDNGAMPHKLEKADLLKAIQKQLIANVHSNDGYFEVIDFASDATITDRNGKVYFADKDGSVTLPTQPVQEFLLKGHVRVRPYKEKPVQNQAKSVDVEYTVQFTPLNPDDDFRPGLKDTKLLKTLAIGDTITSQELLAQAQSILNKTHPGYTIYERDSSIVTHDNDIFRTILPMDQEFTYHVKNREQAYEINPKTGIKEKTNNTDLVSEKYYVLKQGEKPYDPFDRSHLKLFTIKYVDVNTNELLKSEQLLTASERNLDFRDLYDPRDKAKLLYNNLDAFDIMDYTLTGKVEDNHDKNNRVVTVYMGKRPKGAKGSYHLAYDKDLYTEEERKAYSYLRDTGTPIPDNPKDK

Streptococcus = test: Group A Streptococcus viability loss, dose response, counter-screen for streptokinase expression inhibitor project, luminescence, BacTiterGlo (AID 1915); type: functional, organism-based;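 also: potency for reduction of bacterial viability or growth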
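For AC50 in this document: cells exposed to compound for roughly 70 hours or longer before luminescence read.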

Luciferin 4-monooxygenase, sequence (P08659 whole entry): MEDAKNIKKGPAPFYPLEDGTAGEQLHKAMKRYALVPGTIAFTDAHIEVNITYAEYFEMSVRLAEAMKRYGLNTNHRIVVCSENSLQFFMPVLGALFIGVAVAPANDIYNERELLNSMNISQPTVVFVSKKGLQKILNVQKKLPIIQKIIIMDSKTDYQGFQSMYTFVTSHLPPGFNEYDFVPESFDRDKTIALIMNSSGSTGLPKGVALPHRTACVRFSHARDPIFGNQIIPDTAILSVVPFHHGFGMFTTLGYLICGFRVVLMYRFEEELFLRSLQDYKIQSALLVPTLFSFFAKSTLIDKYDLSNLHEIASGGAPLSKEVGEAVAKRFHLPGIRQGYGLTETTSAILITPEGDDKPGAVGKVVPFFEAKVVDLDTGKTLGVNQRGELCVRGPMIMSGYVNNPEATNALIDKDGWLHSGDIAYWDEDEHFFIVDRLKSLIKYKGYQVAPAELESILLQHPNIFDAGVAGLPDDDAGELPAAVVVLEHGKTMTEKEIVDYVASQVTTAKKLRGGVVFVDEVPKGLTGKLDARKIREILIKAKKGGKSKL

CC(=O)NCc1cn2c(C)csc2n1
EC50 [1]: > 112 µM (not active)
EC50 [2]: > 112 µM (not active)

Cc1cccn2c(=O)c3cc(C(=O)NCC4CCCO4)c(=N)n(CCc4ccccc4)c3nc12 (stereo unspecified)
EC50 [3]: 102 µM (active)
EC50 [4]: 7.9 µM (inconclusive)

COc1ccc(CNC(=O)CCCn2nc([N+](=O)[O-])cc2C)cc1
IC50 [5]: < 0.4 µM (not active)

O=C(N/N=C\C=C\c1ccco1)c1cncc(Br)c1
IC50 (cells): > 50 µM (active)

CC1(C)CC(=O)C2=C(C1)OC(N)=C(C#N)C2c1ccccc1OC(=O)N1CCOCC1 (stereo unspecified)
EC50 [3]: > 300 µM (not active)
EC50 [4]: > 300 µM (not active)

O=[N+]([O-])c1ccc(OC/C=C2\Oc3ccc([N+](=O)[O-])cc3C2N2CCOCC2)cc1 (stereo unspecified)
IC50 [5]: 6.21 µM (not active)
IC50 (Protein skinhead-1): > 100 µM (inactive)

CC(OC(=O)c1nsc(Cl)c1Cl)C(=O)NCc1ccc2c(c1)OCO2 (stereo unspecified)
EC50 [6]: > 195 µM (not active)

O=C(Nc1cccc2oc(=O)ccc12)c1ccc([N+](=O)[O-])cc1[N+](=O)[O-]
IC50 [5]: 5.83 µM (active)

Cc1nc2ccc(N3CCN(C)CC3)cc2nc1C
EC50 [3]: > 300 µM (not active)
EC50 [4]: > 300 µM (not active)

Cc1cc(C)c2oc(C(=O)Nc3ccc(S(=O)(=O)Nc4nccc(C)n4)cc3)cc(=O)c2c1
EC50 [6]: > 195 µM (not active)

COc1ccc(N(CC(=O)N/N=C/c2ccc(-c3ccc([N+](=O)[O-])cc3)o2)S(=O)(=O)c2ccc(C)cc2)cc1
EC50 [1]: > 112 µM (not active)
EC50 [2]: > 112 µM (not active)

Cc1ccc(C(=O)N/C(=C\c2cccc([N+](=O)[O-])c2)C(=O)NCc2ccncc2)cc1
EC50 [1]: > 112 µM (not active)
EC50 [2]: 38.4 µM (active)

COc1ccc(Cn2nnnc2CN2CCc3ccccc3C2)cc1
EC50 [6]: > 195 µM (not active)

O=C(Cc1c[nH]c2ccccc12)N/N=C/c1ccccc1O
EC50 [1]: > 112 µM (not active)
EC50 [2]: > 112 µM (not active)

O=C(NCC(=O)N1CCN(c2ccccc2O)CC1)c1ccc(Br)o1
EC50 [6]: > 195 µM (not active)

COC(=O)C1(Cc2ccccc2)NC(c2ccccc2C)C2C(=O)N(c3ccc4c(c3)OCO4)C(=O)C21 (stereo unspecified)
EC50 [6]: > 195 µM (not active)

Cc1ccc(-c2nc(NCc3ccco3)c3ccccc3n2)cc1
IC50 [5]: 7.69 µM (not active)
AC50 [7]: 9.72 µM (active)

O=C1Nc2ccccc2C1=Nc1ccc(-c2nnc3n2CCCCC3)cc1
EC50 [1]: > 112 µM (not active)
EC50 [2]: > 112 µM (not active)

O=C(CN1CCN(C(=O)c2ccccc2)CC1)Nc1ncc(Br)cc1Br
EC50 [6]: > 195 µM (not active)

CC(=O)c1cc(NC(=O)c2ccc(Cl)cc2)c(=O)oc1/C=C/N(C)C
EC50 [3]: 57.3 µM (active)
EC50 [4]: 4.07 µM (active)
EC50 [8]: 5 µM (active)

CC1(C)c2ccccc2-n2c1cc1oc(=O)cc(O)c1c2=O
EC50 [9]: > 150 µM (not active)
EC50 (Streptokinase A): > 150 µM (not active)
IC50 [5]: 1.02 µM (not active)
EC50 (Streptococcus): > 150 µM (not active)

COc1ccccc1/C=N/NC(=S)NCc1ccco1
IC50 [5]: 8.4 µM (active)

COc1ccc(-n2c(C)c(C(C)=O)c(C(C)=O)c2C)cc1
EC50 [6]: > 195 µM (not active)

N#Cc1nc(COc2ccccc2)oc1N1CCN(c2cccc(Cl)c2)CC1
IC50 [5]: 34.3 µM (not active)

Cc1ccc(-c2nnc(SCC(=O)Nc3nccs3)n2N)cc1
EC50 [6]: > 195 µM (not active)

COC(=O)c1c(C(=O)OC)c2n(c1C)Cc1ccccc1C2
EC50 [3]: > 300 µM (not active)
EC50 [4]: 43.7 µM (active)

Cc1ccc(NC(=O)Cc2ccc(-n3cccc3)cc2)c(C)c1
EC50 [6]: > 195 µM (not active)

CCCCOC(=O)CSC1=C(C#N)C(c2ccccc2OCC)C(C#N)C(=O)N1 (stereo unspecified)
EC50 [3]: > 300 µM (not active)
EC50 [4]: > 300 µM (inconclusive)

COc1cc(Cl)c(C)cc1NC(=O)CNC(C)c1ccccc1OC (stereo unspecified)
IC50 [5]: > 50 µM (not active)
